Assay results published in PubChem BioAssay AID1259407 (Chemical Carcinogenesis Research Information System (CCRIS), 2018).
Calls of active or inactive are those of the source. No rule for the calls is given here.

Tested on: CCRIS mutagenicity, Ames/micronucleus/aberration tests
Assay: CCRIS mutagenicity studies

## BrCCBr
End Point: IN VITRO CHROMOSOMAL ABERRATIONS, Test System: CHL CELLS, Metabolic Activation: RAT, LIVER, S-9, SODIUM PHENOBARBITAL AND 5,6-BENZOFLAVONE
  mutagenic call: active; positive (structural changes)
End Point: IN VITRO CHROMOSOMAL ABERRATIONS, Test System: CHO CELLS, Metabolic Activation: NONE
  mutagenic call: active; positive
End Point: IN VITRO CHROMOSOMAL ABERRATIONS, Test System: CHO CELLS, Metabolic Activation: RAT, LIVER, S-9, AROCLOR 1254
  mutagenic call: active; positive
Test System: AMES SALMONELLA TYPHIMURIUM, Strain/Indicator: TA97, Metabolic Activation: NONE, Method: STANDARD PLATE
  mutagenic call: active; positive
Test System: AMES SALMONELLA TYPHIMURIUM, Strain/Indicator: TA97, Metabolic Activation: RAT, LIVER, S-9, AROCLOR 1254, Method: STANDARD PLATE
  mutagenic call: active; positive
Test System: AMES SALMONELLA TYPHIMURIUM, Strain/Indicator: TA98, Metabolic Activation: NONE, Method: STANDARD PLATE
  mutagenic call: inactive; negative
Test System: AMES SALMONELLA TYPHIMURIUM, Strain/Indicator: TA98, Metabolic Activation: RAT, LIVER, S-9, AROCLOR 1254, Method: STANDARD PLATE
  mutagenic call: active; positive
Test System: AMES SALMONELLA TYPHIMURIUM, Strain/Indicator: TA100/NG-57, Metabolic Activation: CELL PRETREATMENT WITH GLUTATHIONE, Method: PREINCUBATION
  mutagenic call: active; positive
Test System: AMES SALMONELLA TYPHIMURIUM, Strain/Indicator: TA100/NG-57, Metabolic Activation: NONE, Method: PREINCUBATION
  mutagenic call: inactive; negative
Test System: AMES SALMONELLA TYPHIMURIUM, Strain/Indicator: TA100, Metabolic Activation: CELL PRETREATMENT WITH GLUTATHIONE, Method: PREINCUBATION
  mutagenic call: active; positive
Test System: AMES SALMONELLA TYPHIMURIUM, Strain/Indicator: TA100, Metabolic Activation: NONE
  mutagenic call: active; positive
Test System: AMES SALMONELLA TYPHIMURIUM, Strain/Indicator: TA100, Metabolic Activation: NONE, Method: PREINCUBATION
  mutagenic call: active; positive
Test System: AMES SALMONELLA TYPHIMURIUM, Strain/Indicator: TA100, Metabolic Activation: NONE, Method: SUSPENSION/PLATE
  mutagenic call: active; positive
Test System: AMES SALMONELLA TYPHIMURIUM, Strain/Indicator: TA100, Metabolic Activation: RAT, KIDNEY, S-9, AROCLOR 1254
  mutagenic call: active; positive
Test System: AMES SALMONELLA TYPHIMURIUM, Strain/Indicator: TA100, Metabolic Activation: RAT, LIVER, HEPATOCYTES, Method: SUSPENSION/PLATE
  mutagenic call: active; positive
Test System: AMES SALMONELLA TYPHIMURIUM, Strain/Indicator: TA100, Metabolic Activation: RAT, LIVER, S-9, AROCLOR 1254
  mutagenic call: active; positive
Test System: AMES SALMONELLA TYPHIMURIUM, Strain/Indicator: TA100, Metabolic Activation: RAT, LIVER, S-9, AROCLOR 1254, Method: STANDARD PLATE
  mutagenic call: active; positive
Test System: AMES SALMONELLA TYPHIMURIUM, Strain/Indicator: TA100, Metabolic Activation: RAT, LIVER, S-9, AROCLOR 1254 AND RAT, KIDNEY, S-9, AROCLOR 1254
  mutagenic call: active; positive
Test System: AMES SALMONELLA TYPHIMURIUM, Strain/Indicator: TA100, Metabolic Activation: S-9 MIX, Method: STANDARD PLATE
  mutagenic call: active; positive
Test System: AMES SALMONELLA TYPHIMURIUM, Strain/Indicator: TA102, Metabolic Activation: NONE, Method: STANDARD PLATE
  mutagenic call: inactive; negative
Test System: AMES SALMONELLA TYPHIMURIUM, Strain/Indicator: TA104, Metabolic Activation: NONE, Method: STANDARD PLATE
  mutagenic call: inactive; negative
Test System: AMES SALMONELLA TYPHIMURIUM, Strain/Indicator: TA104, Metabolic Activation: RAT, LIVER, S-9, AROCLOR 1254, Method: STANDARD PLATE
  mutagenic call: inactive; negative
Test System: AMES SALMONELLA TYPHIMURIUM, Strain/Indicator: TA1530, Metabolic Activation: NONE, Method: SPOT
  mutagenic call: active; positive
Test System: AMES SALMONELLA TYPHIMURIUM, Strain/Indicator: TA1535/NG-19, Metabolic Activation: CELL PRETREATMENT WITH GLUTATHIONE, Method: PREINCUBATION
  mutagenic call: active; positive
Test System: AMES SALMONELLA TYPHIMURIUM, Strain/Indicator: TA1535/NG-19, Metabolic Activation: NONE, Method: PREINCUBATION
  mutagenic call: active; positive
Test System: AMES SALMONELLA TYPHIMURIUM, Strain/Indicator: TA1535, Metabolic Activation: CELL PRETREATMENT WITH GLUTATHIONE, Method: PREINCUBATION
  mutagenic call: active; positive
Test System: AMES SALMONELLA TYPHIMURIUM, Strain/Indicator: TA1535, Metabolic Activation: NONE, Method: PREINCUBATION
  mutagenic call: active; positive
Test System: AMES SALMONELLA TYPHIMURIUM, Strain/Indicator: TA1535, Metabolic Activation: NONE, Method: STANDARD PLATE
  mutagenic call: active; positive
Test System: AMES SALMONELLA TYPHIMURIUM, Strain/Indicator: TA1535, Metabolic Activation: RAT, KIDNEY, S-9, AROCLOR 1254
  mutagenic call: active; positive
Test System: AMES SALMONELLA TYPHIMURIUM, Strain/Indicator: TA1535, Metabolic Activation: RAT, LIVER, S-9, AROCLOR 1254, Method: PREINCUBATION
  mutagenic call: active; positive
Test System: AMES SALMONELLA TYPHIMURIUM, Strain/Indicator: TA1535, Metabolic Activation: RAT, LIVER, S-9, AROCLOR 1254, Method: STANDARD PLATE
  mutagenic call: active; positive
Test System: AMES SALMONELLA TYPHIMURIUM, Strain/Indicator: TA1535, Metabolic Activation: RAT, LIVER, S-9, AROCLOR 1254 AND RAT, KIDNEY, S-9, AROCLOR 1254
  mutagenic call: active; positive
Test System: AMES SALMONELLA TYPHIMURIUM, Strain/Indicator: TA1535, Metabolic Activation: RAT, LIVER, S-9, PHENOBARBITAL, Method: STANDARD PLATE
  mutagenic call: active; positive
Test System: AMES SALMONELLA TYPHIMURIUM, Strain/Indicator: TA2638, Metabolic Activation: NONE, Method: STANDARD PLATE
  mutagenic call: inactive; negative
Test System: AMES SALMONELLA TYPHIMURIUM, Strain/Indicator: YG7100, Metabolic Activation: NONE, Method: PREINCUBATION
  mutagenic call: active; positive
Test System: AMES SALMONELLA TYPHIMURIUM, Strain/Indicator: YG7104, Metabolic Activation: NONE, Method: PREINCUBATION
  mutagenic call: active; positive
Test System: AMES SALMONELLA TYPHIMURIUM, Strain/Indicator: YG7108, Metabolic Activation: NONE, Method: PREINCUBATION
  mutagenic call: active; positive
Test System: AMES SALMONELLA TYPHIMURIUM, Strain/Indicator: YG7112, Metabolic Activation: NONE, Method: PREINCUBATION
  mutagenic call: active; positive
Test System: AMES SALMONELLA TYPHIMURIUM, Strain/Indicator: YG7113, Metabolic Activation: NONE, Method: PREINCUBATION
  mutagenic call: active; positive
Test System: AMES SALMONELLA TYPHIMURIUM, Strain/Indicator: YG7119, Metabolic Activation: NONE, Method: PREINCUBATION
  mutagenic call: active; positive
Test System: CHINESE HAMSTER OVARY, Strain/Indicator: CHO-K1 (HPRT)/6-THIOGUANINE, Metabolic Activation: NONE, Method: SUSPENSION/PLATE
  mutagenic call: active; positive
Test System: CHINESE HAMSTER OVARY, Strain/Indicator: CHO-K1-BH4 (HGPRT)/6-THIOGUANINE, Metabolic Activation: NONE
  mutagenic call: inactive; negative
Test System: E. COLI, Strain/Indicator: K12(AB1157), Metabolic Activation: NONE, Method: SUSPENSION/PLATE
  mutagenic call: inactive; negative
Test System: E. COLI, Strain/Indicator: K12(AB1157), Metabolic Activation: RAT, LIVER, S-9, PHENOBARBITAL AND BETA-NAPHTHOFLAVONE, Method: SUSPENSION/PLATE
  mutagenic call: inactive; negative
Test System: E. COLI, Strain/Indicator: K12(AB1886) UVRA, Metabolic Activation: NONE, Method: SUSPENSION/PLATE
  mutagenic call: active; positive
Test System: E. COLI, Strain/Indicator: K12(AB1886) UVRA, Metabolic Activation: RAT, LIVER, S-9, PHENOBARBITAL AND BETA-NAPHTHOFLAVONE, Method: SUSPENSION/PLATE
  mutagenic call: active; positive
Test System: E. COLI, Strain/Indicator: K12(AB2480) RECA/UVRA, Metabolic Activation: NONE, Method: SUSPENSION/PLATE
  mutagenic call: inactive; negative
Test System: E. COLI, Strain/Indicator: K12(AB2480) RECA/UVRA, Metabolic Activation: RAT, LIVER, S-9, PHENOBARBITAL AND BETA-NAPHTHOFLAVONE, Method: SUSPENSION/PLATE
  mutagenic call: inactive; negative
Test System: E. COLI, Strain/Indicator: WP2 UVRA (PKM101), Metabolic Activation: NONE, Method: STANDARD PLATE
  mutagenic call: active; positive
Test System: MOUSE LYMPHOMA, Strain/Indicator: L5178Y (TK+/TK-), Metabolic Activation: NONE, Method: SUSPENSION/PLATE
  mutagenic call: active; positive
Test System: MOUSE LYMPHOMA, Strain/Indicator: L5178Y (TK+/TK-), Metabolic Activation: RAT, LIVER, S-9, AROCLOR 1254, Method: SUSPENSION/PLATE
  mutagenic call: active; positive
